Consider 11 compounds from PMC6204753, “Non-native autoinducer analogs capable of modulating the SdiA quorum sensing receptor in Salmonella enterica serovar Typhimurium” (Beilstein Journal of Organic Chemistry, 2018).

Several values for one entry are separate records, joined by “and”; a condition that tells them apart may be missing. Equal values may be shown once. Entries after “also recorded” stand apart in the source; their conditions may differ. Read-outs that look alike come from different tables or passages of the source.

The target of data set [1] is T1, SdiA (Salmonella enterica subsp. enterica serovar Typhimurium, UniProt O66040). The arrangement: method as in PMID 17085703. To be noted: racemates; cited from earlier work.
T1 sequence (O66040 entry or part of it): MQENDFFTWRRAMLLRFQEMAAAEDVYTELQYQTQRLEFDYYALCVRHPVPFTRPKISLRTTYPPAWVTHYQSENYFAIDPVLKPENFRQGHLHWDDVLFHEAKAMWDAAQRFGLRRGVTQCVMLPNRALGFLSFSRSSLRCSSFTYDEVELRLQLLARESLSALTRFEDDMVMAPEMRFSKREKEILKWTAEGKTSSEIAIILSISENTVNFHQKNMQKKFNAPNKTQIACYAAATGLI
In data set [2] the target is T1, SdiA. Description: S. Typhimurium-pJNS25 SdiA reporter, agonism (luminescence). It counts as cell-based. The settings on record: for Emax: read-out: activation (%). The method in brief:
(§1)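 S. Typhimurium-pJNS25 (native SdiA, srgE promoter–luxCDABE) subcultured 1:100 in LB and incubated 6 h at 37 °C, 200 rpm, with compound (1% DMSO); antagonism run against 10 nM L-OOHL. Luminescence normalised between 10 μM OOHL and 1% DMSO controls; triplicates; four-parameter dose–response fits.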

In data set [3] the target is T1, SdiA. Description: S. Typhimurium-pJNS25 SdiA reporter, competitive antagonism against 10 nM L-OOHL. It counts as cell-based. To be noted: for inhibition at 1 µM: read-out: Antagonism 1 μM Inhibition (%); for inhibition at 100 µM: 100 μM compound, read-out: Antagonism 100 μM Inhibition (%); for Emax: 100% minus lowest % activity in presence of 10 nM L-OOHL (2). The method in brief:
as §1

Data set [4] has as its target T2, S. Typhimurium SdiA (Salmonella enterica subsp. enterica serovar Typhimurium, UniProt O66040). Description: E. coli JLD271-pJN105SE-pSC11SE SdiA reporter, antagonism (β-galactosidase). It counts as cell-based. The settings on record: for inhibition (%): E. coli reporter, against OOHL at its EC50 (1.5 nM), NA = not active. An excerpt:
(§2) Biological assays for SdiA activity. Cell-based reporter strains that rely on detecting the transcriptional activity of LuxR-type receptors are commonly used to assess the activity of exogenous ligands. We used the S. Typhimurium-pJNS25 reporter strain constructed by Smith and Ahmer and also used by Janssens et al. to examine SdiA activity. This strain naturally produces SdiA and contains a reporter plasmid with the promoter region for srgE fused to the luxABCDE operon of V. fischeri (see Experimental section for details of all strains and plasmids). SdiA activity is thus reported by the production of luciferase and resulting bioluminescence. We also prepared an SdiA reporter in E. coli (JLD271-pJN105SE-pSC11SE) to examine S. Typhimurium SdiA activity in an alternate background and with a different reporter gene output. E. coli JLD271 is the sdiA mutant of K-12 E. coli. This reporter construct uses an arabinose inducible promoter to produce S. Typhimurium SdiA and the promoter region for srgE fused to lacZ to report SdiA activity. SdiA activity is then measured using standard β-galactosidase assays. In both reporter strains, signal was normalized to the difference between the positive control (10 μM OOHL) and the negative control (1% DMSO; no compound).
E. coli SdiA reporter assay. The β-galactosidase assay using the E. coli SdiA reporter was performed as reported previously, with minor modifications. The reporter strain was grown 16–18 h overnight in LB, diluted 1:10 in fresh LB medium, and incubated at 37 °C with shaking at 200 rpm until it reached an OD600 of 0.25. Expression of SdiA was induced by the addition of 4 mg/mL arabinose, and the culture was incubated in the presence of compounds (1% DMSO) for 4 h at 37 °C with shaking at 200 rpm. […] A 50 μL aliquot of culture from each well was lysed in 200 μL of Z-buffer and 8 μL of chloroform, and a 100 μL aliquot of this lysate was incubated with 25 μL of 4 mg/mL ONPG for 20 min at 30 °C before reading absorption at 420 nm and 550 nm using a Biotek Synergy 2 plate reader. Non-linear regression curve fits were generated using GraphPad Prism software (version 6) using variable slope (four parameter) dose–response analysis.

The target of data set [5] is T1, SdiA. Description: Competition dose–response of OOHL (2) against antagonists in the S. Typhimurium SdiA reporter. Format: cell-based. To be noted: for inhibition profile in competition assay (in words): against OOHL (2). The protocol:
We also submitted compounds 11, R8, and F45 to competition-type assays in the S. Typhimurium SdiA reporter to further characterize their activity profiles. […] The results are shown in Figure 5 (EC50 and maximal activity values listed in Supporting Information File 3).
(§3) Salmonella SdiA reporter assay. S. Typhimurium-pJNS25 was grown 16–18 h overnight in LB, diluted 1:100 in fresh LB medium, and then incubated for 6 h at 37 °C with shaking at 200 rpm in the presence of compounds (1% DMSO). For antagonism assays, OOHL (2) at its EC90 (10 nM, 0.1% DMSO) was added to the subculture immediately prior to adding the compound for testing. All compounds were screened at 100 μM and 1 μM in triplicate in agonism and antagonism assays. Raw luminescence values were divided by the OD600 and then normalized to the controls; negative (DMSO) and positive (10 μM OOHL) control samples were included in every assay plate and used to normalize assay results, setting the positive control to 100% and the negative control to 0%. Luminescence was measured using a Biotek Synergy 2 plate reader and Gen 5 software (version 1.05). Dose–response analyses were performed by preparing dilutions of compounds in DMSO and testing each concentration in the agonism or antagonism assays. Competition dose–response assays (data in Figure 5) were performed in the same manner as the antagonism assays, except instead of OOHL being added to the subculture, the antagonist being tested was added. Non-linear regression curve fits were generated using GraphPad Prism software (version 6) using variable slope (four parameter) dose–response analysis.

For data set [6], the target named is T2, S. Typhimurium SdiA. Description: E. coli JLD271-pJN105SE-pSC11SE SdiA reporter, agonism. It counts as cell-based.
From the text: as §2, with “This reporter construct uses an arabinose inducible promoter to produce S. Typhimurium SdiA and the promoter region for srgE fused to lacZ to report SdiA activity.” left out, “In both reporter strains, signal was normalized to the difference between the positive control (10 μM OOHL) and the negative control (1% DMSO; no compound).” left out
E. coli SdiA reporter assay. […] A 50 μL aliquot of culture from each well was lysed in 200 μL of Z-buffer and 8 μL of chloroform, and a 100 μL aliquot of this lysate was incubated with 25 μL of 4 mg/mL ONPG for 20 min at 30 °C before reading absorption at 420 nm and 550 nm using a Biotek Synergy 2 plate reader. […]

The test system of data set [7] is S. Typhimurium-pJNS25. It counts as cell-based. To be noted: 100 μM compound; footnote f: Cell growth inhibited at this compound concentration. The protocol:
as §3

[8] abbreviates: maximal activation of the antagonists (partial agonism), Table 3.
Where [9] appears, read: 1 μM compound, average ± STD, change in activity from 10 nM 2 (OOHL).
Setting [10] is: average ± STD, change in activity from 10 nM 2 (OOHL).
Setting [11] is: maximal inhibition, read-out: inhibition (%).

T2 sequence (O66040 entry or part of it): as above

Regarding `CCCCCC(=O)CC(=O)NC1CCSC1=O` (racemic) [DL-3-oxo-C8 thiolactone], the EC50 (as a rule, the concentration giving half of the maximal effect) in data set [1] is 1 nM.
As to `CCCCCCCCCC(=O)NC1CCOC1=O` (racemic) [DL-DHL (C10)], in data set [1], the EC50 is 1000 nM.
For `CCCC(=O)CC(=O)NC1CCOC1=O` (racemic) [DL-OHHL (3-oxo-C6)], the EC50 in data set [1] was 5 nM.
As for `CCCCCCCC(=O)NC1CCOC1=O` (racemic) [DL-OHL (C8)], the EC50 in data set [1] was 7 nM.
In the case of `CCCCCC(=O)CC(=O)NC1CCOC1=O` (racemic) [DL-OOHL, N-(3-oxooctanoyl) DL-homoserine lactone], the concentration giving a half-maximal response (EC50) in data set [1] was 3 nM.
As to `CCOC(=O)CNC(=O)Cc1cccc(I)c1` [F45], the Emax in data set [2] (setting [8]) came to 26%; in data set [3] (setting [11]) it was 87%. In addition, the inhibition (usually the relative decrease from the control value, in per cent) at 1 µM in data set [3] (setting [9]) amounted to 8 ± 10%. Further, the inhibition at 100 µM in data set [3] (setting [10]) came to 92 ± 2%. Moreover, the IC50 (usually the concentration at which inhibition is half-maximal) in data set [3] (against 10 nM L-OOHL (EC90)) was 28500 nM. Also, the “inhibition (%)” value in data set [4] is “failed to display antagonistic activity”. Besides, in data set [5], the “inhibition profile in competition assay (in words)” value (“inhibition profile” for short) was “non-competitive inhibition profile”. In addition, the results for the EC50 in data set [5] (antagonist at 0.1 μM), in data set [5] (antagonist at 1 μM) and in data set [5] (antagonist at 10 μM) were 1.77 nM, 1.33 nM and 4.11 nM, respectively.
As for `CCCCCCCCCCCOc1ccc(C(=O)N[C@H]2CCOC2=O)cc1` [R8], the Emax is 24% in data set [2] (setting [8]) and above 100% in data set [3] (setting [11]). For the same compound, the inhibition at 1 µM in data set [3] (setting [9]) worked out at 18 ± 5%. Besides, the inhibition at 100 µM in data set [3] (setting [10]) came out at 67 ± 5%. Further, the half-maximal inhibitory concentration (IC50) in data set [3] (against 10 nM L-OOHL (EC90)) was 44000 nM and 44200 nM. Further, in data set [4], the inhibition at 0.0015 µM amounted to 106%. In data set [4], the “inhibition (%)” value is recorded as “fully inhibit SdiA activity”. Further, the “inhibition profile” value in data set [5] is “competitive SdiA inhibition”. Moreover, the 50% effective concentration (EC50) in data set [5] (antagonist at 0.1 μM) worked out at 1.57 nM; in data set [5] (antagonist at 1 μM), 1.51 nM; in data set [5] (antagonist at 10 μM) it was 2.52 nM; in data set [5] (antagonist at 100 μM), 10.6 nM.
Take `CCCCCC(=O)CC(=O)N[C@H]1CCOC1=O` [compound 2, reference compound]: the EC90 (usually the concentration needed for an effect of 90%) in data set [2] (S. Typhimurium reporter) came out at 10 nM. Besides, the EC50 in data set [2] (agonism dose–response, read-out: EC50) turned out to be 1.03 nM; in data set [5] (no antagonist (0)), 1.03 nM; in data set [6], 1.5 nM. The Emax in data set [2] (maximal activity (efficacy) from agonism dose–response, 10 μM OOHL = 100%, DMSO = 0%) amounted to 110%. In data set [3] (setting [9]), the inhibition at 1 µM was -2 ± 9%. Also, the inhibition at 100 µM in data set [3] (setting [10]) stood at 9 ± 5%.
Consider `O=C(CCCCCCCCCN=C=S)CC(=O)N[C@H]1CCOC1=O` [compound 11, reference compound], for which the Emax in data set [2] (setting [8]) is -33%. The inhibition at 1 µM in data set [3] (setting [9]) stood at 64 ± 6%. For the same compound, the inhibition at 100 µM in data set [3] (setting [10]) came out at 128 ± 1%. In addition, the figures for the IC50 in data set [3] (against 10 nM L-OOHL), in data set [3] (against 10 nM L-OOHL (EC90)) and in data set [4] were 318 nM, 320 nM and 380 nM, respectively. Further, the inhibition at 0.0015 µM in data set [4] is 130%. The “inhibition (%)” value in data set [4] was “fully inhibit SdiA activity”. In addition, the “inhibition profile” value in data set [5] is “both competitive and non-competitive inhibition”. Moreover, the concentration for a half-maximal effect (EC50) was determined as 72.3 nM in data set [5] (antagonist at 0.1 μM), 220 nM in data set [5] (antagonist at 1 μM), 1310 nM in data set [5] (antagonist at 10 μM) and 4670 nM in data set [5] (antagonist at 100 μM).
Take `O=C(CCCOc1cccc(Br)c1)N[C@H]1CCSC1=O` [compound 16, reference compound]: the “activity in the SdiA reporter assay (in words)” value in data set [2] (S. Typhimurium reporter) was “multimodal, or non-monotonic”. For the same compound, the Emax in data set [2] amounted to 48%; in data set [3] (read-out: inhibition (%), maximal inhibition), 89%. The inhibition at 1 µM in data set [3] (setting [9]) was 8 ± 14%. Moreover, the inhibition at 100 µM in data set [3] (setting [10]) turned out to be 84 ± 6%. The IC50 in data set [3] (against 10 nM L-OOHL (EC90)) worked out at 45000 nM. Also, the “inhibition (%)” value in data set [4] (0.0015 µM) was “failed to display antagonistic activity; also recorded: did not display any activity”.
As for `O=C1C=C(Br)C(=CBr)O1` [compound 21, reference compound], in data set [3] (setting [9]), the “Antagonism 1 μM Inhibition (%)” value turned out to be 29 ± 13%. In data set [7], the cell growth result is “--f”.
